Measured values published in patent EP0497921B1, “METHOD FOR INHIBITING ENZYMATIC SYNTHESIS OF NUCLEIC ACIDS USING ISOPSORALENS” (ISAACS, Stephen T., priority 1989, dated 1991).

Tests used:
calf thymus DNA = assay: Covalent photobinding of tritiated isopsoralens (scintillation counting); format: binding; details: for actual concentrations obtained empirically: nominal concentration of 100 µg/ml in calf thymus DNA / 1 x TE, counted after sitting overnight at room temperature
Method: Figure 17 can again be referred to as a flow chart schematically showing the manner in which covalent binding was measured for the compounds synthesized by the methods of the present invention. ^3H-AMIP (3.1 x 10^5 cpm/µg), ^3H-AMDMIP (2.2 x 10^5 cpm/µg), and ^3H-MIP (2.1 x 10^5 cpm/µg) were added to 300 µl of calf thymus DNA (Sigma) in 1 x TE buffer. All of the isopsoralen compounds were added at a nominal concentration of 100 µg/ml. However, actual concentrations obtained empirically (counted after sitting overnight at room temperature) were: ^3H-AMIP (105 µg/ml), ^3H-AMDMIP (115 µg/ml), and ^3H-MIP ([…]).
To assess binding, three samples were prepared for each compound; two were irradiated (15 minutes at 25°C with the CE-I device) while one was unirradiated as a control. Following irradiation, the samples were extracted four times with CHCl3 then precipitated twice. The final pellet was brought up in 1 ml of 1 x TE buffer and resuspended by shaking at 40°C overnight. 50 µl of each sample was then diluted to 0.5 mls with H20. The concentration of DNA was determined by UV absorption (A260) and the amount of covalently bound isopsoralen ("adduct") was determined by scintillation counting (3 x 100 µl aliquots). From these numbers, the following binding ratios (adducts: DNA base pair) were determined: […]

Taq polymerase = Taq polymerase (Thermus aquaticus, UniProt P19821); assay: Primer extension on 71-mer after random addition of compound or addition of photoproduct; format: biochemical; details: for extension products, irradiated samples: 71-mer irradiated 15 minutes on CE-I at 25°C with AMIP (200 µg/ml), AMDMIP (200 µg/ml) or MIP (60 µg/ml), extension 5 minutes at 55°C
Sequence of Taq polymerase (P19821 whole entry): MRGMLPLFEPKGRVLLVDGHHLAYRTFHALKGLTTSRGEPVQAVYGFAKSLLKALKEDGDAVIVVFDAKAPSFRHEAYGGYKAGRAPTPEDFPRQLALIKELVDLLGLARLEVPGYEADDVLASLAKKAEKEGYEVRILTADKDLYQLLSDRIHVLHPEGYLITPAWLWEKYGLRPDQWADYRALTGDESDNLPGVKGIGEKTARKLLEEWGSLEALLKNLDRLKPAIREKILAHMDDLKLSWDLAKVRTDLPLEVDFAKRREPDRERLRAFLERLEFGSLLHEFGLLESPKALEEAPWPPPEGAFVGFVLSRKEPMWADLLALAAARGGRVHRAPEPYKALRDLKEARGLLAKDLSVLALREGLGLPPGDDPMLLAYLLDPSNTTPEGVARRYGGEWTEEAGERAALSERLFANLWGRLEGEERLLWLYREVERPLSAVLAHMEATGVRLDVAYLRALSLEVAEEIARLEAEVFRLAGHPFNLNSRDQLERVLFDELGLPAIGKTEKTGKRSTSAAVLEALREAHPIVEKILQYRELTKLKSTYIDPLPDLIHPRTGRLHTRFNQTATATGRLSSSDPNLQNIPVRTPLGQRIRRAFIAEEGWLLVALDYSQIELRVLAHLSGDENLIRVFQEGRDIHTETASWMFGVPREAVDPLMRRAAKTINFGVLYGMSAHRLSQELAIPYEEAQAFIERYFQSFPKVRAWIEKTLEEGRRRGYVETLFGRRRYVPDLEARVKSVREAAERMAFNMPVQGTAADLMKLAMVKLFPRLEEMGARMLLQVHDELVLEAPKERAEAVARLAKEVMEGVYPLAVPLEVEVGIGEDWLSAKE
From the text: In this experiment, the ability of AMIP, AMDMIP and MIP to block replication of 71-mer is investigated by randomly adding each compound to the 71-mer. of course, addition may only be random in the sense that one or more adducts may be formed with any one strand of nucleic acid. The actual placement of the isopsoralen may be governed by preferential binding at particular sites (e.g. A:T). In addition to blockage by random adducts, photoproducts of the various isopsoralens may be providing an inhibitory effect. No attempt to separate the effects of photoproduct from the effects of covalent adducts on the 71-mer template was made in this series of experiments.
In these experiments, the 71-mer template (10^-9 M) was primed with ^32P-SK-39 (10^-8) and extended with Taq polymerase in a total volume of 20 µl. The dNTP concentration was 200 µM. In the control samples, the 71-mer, the primer, and the dNTPs were mixed in Taq buffer in a volume of 18 µl. These samples were initially denatured at 95°C for 5 minutes, followed by equilibration at 550C for 3 minutes. Taq enzyme was then added (0.5 units) and the extension reaction was carried out for 5 minutes at 55°C. The reaction was stopped by making the solution 10 mM in EDTA. In another set of samples, the 71-mer in 10 µl was mixed with either AMIP (200 µg/ml), AMDMIP (200 µg/ml), or MIP (60 µg/ml). Half of these samples were irradiated for 15 minutes on the CE-I device at 25°C. The other half was kept in the dark as controls. These samples were then mixed with the primer and dNTPs as before, and were subjected to the same thermal profile and extension reactions as the samples that were described earlier. The results were examined by PAGE. The extended product bands were identified by autoradiography, excised and counted (data not shown).
In this experiment, the ability of two different Phenylazide derivatives (see Table 1), photobiotin (Vector Labs) and monoazide ethidium chloride, to block replication of 71-mer was investigated by randomly adding each compound to the 71-mer. Again, addition may only be random in the sense that one or more adducts may be formed with any one strand of nucleic acid. The actual placement of these compounds may be governed by preferential binding at particular sites (e.g. A:T). In addition to blockage by random adducts, there may be inhibition by photoproducts. As in Example 23, no attempt was made to separate the impact of photoproducts from that of covalent binding of photoreactive compound on the 71-mer.
The two compounds, photobiotin and monoazide ethidium chloride, have different spectral characteristics. To activate these compounds, two different wavelength regions were selected using a single light source (General Electric Sunlamp, Model RSM, 275 watt). The light source was positioned 10 cm above uncapped Eppendorph tubes which contained samples to be irradiated. The samples were kept on ice during irradiation. A pyrex dish was placed between the lamp and the samples.
For samples containing photobiotin, 2.5 cm of water was added to the pyrex dish to help remove some of the infrared radiation. The samples were irradiated for 15 minutes.
For samples containing monoazide ethidium chloride, wavelengths less than 400 nm were filtered out by using 2.5 cm of an aqueous solution of 2.9 M NaNO2. Removal of short wavelengths (i.e. wavelengths shorter than 400 nm) is necessary for the use of monoazide ethidium chloride. Irradiation of this compound with shorter wavelengths results in conversion to non-active forms (data not shown). Wavelengths below 400 nm are therefore undesirable for use with this compound.
In this experiment, the 71-mer template (2 x 10^-9 M) in 10 µl was mixed with either no photoreactive compound, photobiotin (6 x 10^-6 M), or monoazide ethidium (1.4 x 10^-3 M). Half of each of these samples were irradiated on ice for 15 minutes with wavelengths appropriate for each specific photoreactive compound. […]

## 4'-Aminomethyl-4,5'-dimethylisopsoralen [AMDMIP]
Calf thymus DNA
  actual concentrations obtained empirically: 115 µg/mL
Taq polymerase; 200 µg/ml AMDMIP, CE-I device at 25°C
  extension products, 71-mer irradiated in the presence of AMDMIP: no extension products at all
Taq polymerase
  extension products, irradiated samples: not extended at all
Taq polymerase; unirradiated AMDMIP added to unirradiated 71-mer
  extension products, dark controls: full length extension product

## 5-Aminomethylisopsoralen [AMIP]
Calf thymus DNA
  actual concentrations obtained empirically: 105 µg/mL
Calf thymus DNA; photobinding at the same concentration
  modification density relative to that provided by AMDMIP: 43%
Taq polymerase
  extension products, irradiated samples: not extended at all

## Cc1cc2occc2c2oc(=O)ccc12 [MIP, 5-Methylisopsoralen]
Calf thymus DNA
  actual concentrations obtained empirically: < 10 µg/mL
Taq polymerase
  extension products, irradiated samples: some full length extension product and a minor truncated product
Taq polymerase; irradiated MIP (60 µg/ml)
  amount of full length product relative to the control samples: half
